Source: patent publication US11932657B2, “Heterocyclic compound” (priority 2018, dated 2024)
pIC50: −log10 of the molar value.

Biological target: T1, aryl hydrocarbon receptor (AhR) (Homo sapiens, UniProt P35869)
T1 construct: DRE-Luc HepG2 cells subcultured in a 225 cm^2 flask; endogenous in cells; host or cells: HepG2 (ATCC), stably transfected with the reporter hCYP1A1/pGL4.27 (DRE-Luc HepG2)
T1 sequence (P35869 11-848): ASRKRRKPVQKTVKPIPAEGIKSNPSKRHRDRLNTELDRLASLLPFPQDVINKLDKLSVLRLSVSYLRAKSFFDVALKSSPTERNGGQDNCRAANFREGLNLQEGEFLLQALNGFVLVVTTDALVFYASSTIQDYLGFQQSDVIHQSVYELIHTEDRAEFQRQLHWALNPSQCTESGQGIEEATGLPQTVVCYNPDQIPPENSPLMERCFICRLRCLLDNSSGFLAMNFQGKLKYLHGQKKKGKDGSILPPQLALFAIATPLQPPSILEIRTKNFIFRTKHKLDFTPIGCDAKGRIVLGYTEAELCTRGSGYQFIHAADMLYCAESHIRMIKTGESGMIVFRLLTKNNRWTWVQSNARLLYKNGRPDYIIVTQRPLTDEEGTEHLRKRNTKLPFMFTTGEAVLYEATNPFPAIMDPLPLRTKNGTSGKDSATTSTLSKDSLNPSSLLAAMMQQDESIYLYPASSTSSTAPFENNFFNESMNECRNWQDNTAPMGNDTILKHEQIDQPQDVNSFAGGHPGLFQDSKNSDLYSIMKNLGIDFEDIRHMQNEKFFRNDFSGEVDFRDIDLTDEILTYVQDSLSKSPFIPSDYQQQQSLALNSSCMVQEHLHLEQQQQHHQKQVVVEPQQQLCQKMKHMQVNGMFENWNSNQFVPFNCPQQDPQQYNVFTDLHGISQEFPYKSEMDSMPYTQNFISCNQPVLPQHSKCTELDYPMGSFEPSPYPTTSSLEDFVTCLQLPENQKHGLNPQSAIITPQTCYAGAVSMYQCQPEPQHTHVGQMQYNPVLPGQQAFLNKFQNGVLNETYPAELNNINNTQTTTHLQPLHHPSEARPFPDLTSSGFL
Assay: AhR reporter gene assay (aryl hydrocarbon receptor antagonist activity, DRE-Luc HepG2 cells, TCDD-stimulated luciferase)
Assay type: cell-based
Conditions: not given
Description: Test Example 1 (Aryl Hydrocarbon Receptor Antagonist Activity)
An expression vector, hCYP1A1/pGL4.27 was introduced into HepG2 cells (derived from American Type Culture Collection (ATCC)) that were seeded in 6-well plates (#3810-006 (Iwaki)) at 1.2×10^6 cells/well, using Lipofectamine 3000 (#100022050 (Invitrogen)). Referring to Garrion P M et al., Fundam Appl Toxicol, 30, 194 (1996), the vector hCYP1A1/pGL4.27 incorporated the human CYP1A1 promotor region including dioxin responsive element (DRE) region of the AhR binding region into the XhoI-BglII restriction enzyme site of pGL4.27 (#E8451 (Promega)). After 24 hours, medium-1 was replaced, and after 48 hours, the medium-1 containing hygromycin B (200 to 1000 μg/mL) was subjected to drug treatment. Culturing using the medium containing hygromycin B was continued for about 1 month to clone 24 clones showing drug resistance. A cell line showing high reporter activity was selected (DRE-Luc HepG2) from drug resistant lines using as an indicator luciferase activity (Dual-Glo Luciferase substrate, #E297A (Promega)) relative to an AhR agonist, 2,3,7,8-tetrachlorodibenzo-p-dioxin (TCDD) (#ED-901-B (CIL.)).
DRE-Luc HepG2 cells subcultured in a 225 cm^2 flask (#11-0005 (Iwaki)) were washed with PBS (#1419-144 (Gibco), Lot: 1896207), and thereto was added 8 mL of Trypsin-EDTA (0.05%) (#25300-054 (Gibco)). Thereafter, an excessive liquid was removed from the mixture, and the cells were stood at room temperature for 5 minutes. Thereto was added 10 mL of medium-2, the cells were recovered through a cell strainer (#352350 (Falcon), 70 μm), and the number of cells were then counted using a hemocytometer. A cell suspension was prepared at 3×10^5 cells/mL, 100 μL/well of the cell suspension was seeded into a 96-well white plate (#136101, F96 Microwell (Nunc)), and the cells were then cultured in a CO2 incubator (5% CO2, 37° C.). After 24 hours, the medium was aspirated, and thereto was added 100 μL of an assay medium solution including the compound of the present invention, and the cells were cultured in the CO2 incubator (5% CO2, 37° C.). After 24 hours, 11 μL of an assay medium solution including 5×10^−10 M TCDD (#ED-901-B (CIL.)) was added thereto and the cells were cultured in the CO2 incubator (5% CO2, 37° C.). After 24 hours, 50 μL of a reaction substrate (#E253B, Steady-Glo Luciferase substrate (Promega)) for Firefly Luciferase enzyme reaction was added to each well, and after 5 minute-shaking, the light emission intensity was measured with Wallac ARVO 1420sx (PerkinElmer).

Row | Structure (SMILES) | pIC50
1 | CC1(C)COc2nc3c(NCCc4ccc(O)c(-c5cccc(C#N)c5F)c4)nc(-c4cncc(F)c4)nc3n21 [Example 55] | 8.92
2 | CC1(C)CSc2nc3c(NCCc4ccc(O)cc4)nc(-c4cncc(F)c4)nc3n21 [Example 97] | 7.72
3 | CC1(C)COc2nc3c(NCCc4ccc(O)c(-c5cc(C#N)ccc5F)c4)nc(-c4cncc(C#N)c4)nc3n21 [Example 65] | 8.41
4 | C[C@H]1CSc2nc3c(NCCc4ccc(O)c(-c5cccc(F)c5)c4)nc(-c4cncc(F)c4)nc3n21 [Example 31] | 9.34
5 | CC1(C)CSc2nc3c(NCCc4ccc(O)c(-c5ccccc5)c4)nc(-c4cncc(F)c4)nc3n21 [Example 47] | 9.42
6 | CC1(C)COc2nc3c(NCCc4c[nH]c5ccccc45)nc(-c4cncc(C(F)F)c4)nc3n21 [Example 101] | 7.54
7 | Oc1ccc(CCNc2nc(-c3cncc(F)c3)nc3c2nc2n3CCCCS2)cc1-c1ccccc1F [Example 143] | 9.22
8 | Oc1ccc(CCNc2nc(-c3cncc(F)c3)nc3c2nc2n3CCCO2)cc1-c1ccccc1F [Example 144] | 8.37
9 | CC1(C)CSc2nc3c(NCCc4ccc(O)c(-c5cncc(F)c5)c4)nc(-c4cncc(F)c4)nc3n21 [Example 70] | 8.34
10 | Oc1ccc(CCNc2nc(-c3cncc(F)c3)nc3c2nc2n3CCS2)cc1-c1ccccc1F [Example 142] | 9.05
11 | Oc1ccc(CCNc2nc(-c3cncc(F)c3)nc3c2nc2n3CCCS2)cc1-c1ccccc1F [Example 145] | 8.89

Tested on: immortalized megakaryocyte line (SeV2-MKCL)
Assay: Platelet production: static culturing of immortalized megakaryocyte line
Assay type: cell-based
Conditions: compound final concentration 0.1 μM, static culturing 6 to 7 days, control (DMSO) set to 1; platelets = CD41, CD42b and CD42a-positive cells
Description: Test Example 2 (Platelet Production: Static Culturing)
The immortalized megakaryocyte line (SeV2-MKCL) obtained according to the method described in WO 2016/204256 was washed twice with D-PBS(−) and then cultured in medium not containing doxycycline to terminate forced expression. Culturing was implemented by seeding the cells at 1 mL/well in a 24-well plate (#662160 (Greiner Rio-One)) at a seeding density of 1×10^5 cells/mL followed by static culturing in the medium indicated below.
The medium was obtained by adding the following components to IMDM serving as the basal medium (concentrations indicate final concentrations).
Culturing was implemented under conditions of 37° C. and 5% CO2. At the same time, the compound of the present invention (final concentration 0.1 μM) or DMSO (control) was added and cultured for 6 to 7 days. Thereafter, the number of platelets (CD41, CD42b, and CD42a-positive cells) was measured. The measurement method was as shown below. The same procedure was performed with the control.
A portion of the culture supernatant was harvested 6 to 7 days after culturing to terminate gene expression, and suspended with the following antibodies to stain them. eFluor 450-labeled anti-CD42a antibody (#48-0428-42 (eBioscience)) PE-labeled anti-CD42b antibody (#303906 (BioLegend)) APC-labeled anti-CD41 antibody (#303710 (BioLegend)) The number of platelets was counted using FACSVerse manufactured by BD 30 minutes after the stain reaction. In the measurement of the number of platelets, the number of cells was corrected using Flow-count beads (#7547053 (Beckman Coulter)).
The number of platelets produced from one megakaryocyte cell was calculated based on the number of platelets in the sample obtained by the FACS measurement, and the result was defined as platelet production efficiency (PLT/MK) and used for evaluation of drug efficacy of the compound. In addition, the specific activity at the time when the platelet production efficiency of the control was set to 1 was indicated as fold increase.

Row | Structure (SMILES) | Static (vs veh): fold increase of platelet production efficiency (PLT/MK)
12 | CC1(C)COc2nc3c(NCCc4ccc(O)c(-c5cccc(C#N)c5F)c4)nc(-c4cncc(F)c4)nc3n21 [Example 55] | 6.8
13 | CC1(C)COc2nc3c(NCCc4ccc(O)c(-c5cc(C#N)ccc5F)c4)nc(-c4cncc(C#N)c4)nc3n21 [Example 65] | 3.3
14 | C[C@H]1CSc2nc3c(NCCc4ccc(O)c(-c5cccc(F)c5)c4)nc(-c4cncc(F)c4)nc3n21 [Example 31] | 5.9
15 | CC1(C)CSc2nc3c(NCCc4ccc(O)c(-c5ccccc5)c4)nc(-c4cncc(F)c4)nc3n21 [Example 47] | 3.7
16 | CC1(C)COc2nc3c(NCCc4c[nH]c5ccccc45)nc(-c4cncc(C(F)F)c4)nc3n21 [Example 101] | 3.8
17 | CC1(C)COc2nc3c(NCCc4ccc5[nH]ccc5c4)nc(-c4cncc(F)c4)nc3n21 [Example 103] | 3.1
18 | CC1(C)COc2nc3c(NCCc4c[nH]c5ccccc45)nc(-c4ccc(F)c(F)c4)nc3n21 [Example 88] | 3.1
19 | Fc1cncc(-c2nc(NCCc3c[nH]c4ccccc34)c3nc4n(c3n2)CCCCS4)c1 [Example 107] | 7.9
20 | Cc1[nH]c2ccccc2c1CCNc1nc(-c2cncc(F)c2)nc2c1nc1n2C(C)(C)CO1 [Example 104] | 4.6
21 | CC1(C)CCOc2nc3c(NCCc4c[nH]c5ccccc45)nc(-c4cncc(F)c4)nc3n21 [Example 89] | 5.0
22 | CC1(C)COc2nc3c(NCCc4c[nH]c5ccccc45)nc(-c4ccccc4)nc3n21 [Example 116] | 2.5
23 | Cc1cncc(-c2nc(NCCc3c[nH]c4ccccc34)c3nc4n(c3n2)C(C)(C)CO4)c1 [Example 83] | 5.8
24 | CC1(C)COc2nc3c(NCCc4ccc(O)c(-c5cncc(C#N)c5)c4)nc(-c4cncc(F)c4)nc3n21 [Example 75] | 2.7
25 | Cc1cc(CCNc2nc(-c3cncc(F)c3)nc3c2nc2n3C(C)(C)CO2)ccc1O [Example 51] | 2.6
26 | CC1(C)COc2nc3c(NCCc4ccc(O)c(-c5ccc(O)cc5)c4)nc(-c4cncc(F)c4)nc3n21 [Example 19, 4-[2-[[2-(5-fluoropyridin-3-yl)-8,8-dimethyl-7H-purino[8,9-b][1,3]oxazol-4-yl]amino]ethyl]-2-(4-hydroxyphenyl)phenol] | 2.8
27 | CC1(C)COc2nc3c(NCCc4c[nH]c5ccccc45)nc(-c4ccccc4F)nc3n21 [Example 113] | 2.5
28 | CC1(C)COc2nc3c(NCCc4ccc(O)cc4)nc(-c4cncc(F)c4)nc3n21 [Example 80] | 3.4
29 | CC1(C)CSc2nc3c(NCCc4c[nH]c5ccccc45)nc(-c4cncc(F)c4)nc3n21 [Example 95] | 2.4
30 | CC1(C)CCOc2nc3c(NCCc4ccc(O)cc4)nc(-c4cncc(F)c4)nc3n21 [Example 90] | 2.6
31 | Fc1cncc(-c2nc(NCCc3c[nH]c4ccccc34)c3nc4n(c3n2)CCCO4)c1 [Example 84] | 13
32 | Fc1cncc(-c2nc(NCCc3c[nH]c4ccccc34)c3nc4n(c3n2)CCS4)c1 [Example 105] | 8.2
33 | CC1(C)COc2nc3c(NCCc4c[nH]c5ccccc45)nc(-c4ccc(F)cc4)nc3n21 [Example 114] | 2.2
34 | C[C@@H]1CSc2nc3c(NCCc4c[nH]c5ccccc45)nc(-c4cncc(F)c4)nc3n21 [Example 102] | 4.5
35 | C[C@H]1CSc2nc3c(NCCc4c[nH]c5ccccc45)nc(-c4cncc(F)c4)nc3n21 [Example 106] | 6.9
36 | CC1(C)COc2nc3c(NCCc4c[nH]c5ccccc45)nc(-c4cncc(F)c4)nc3n21 [Example 82] | 5.0
37 | CC1(C)COc2nc3c(NCCc4c[nH]c5ccccc45)nc(-c4ccnc(F)c4)nc3n21 [Example 100] | 3.5
